From ChEMBL document CHEMBL1201862, “PubChem BioAssay data set” (2004)
The source made the active and inactive calls.

Tests used:
[1] = inhibitors of intracellular T. cruzi replication, confirmation, NIH3T3 host cells, beta-gal luminescence (AID 2044); format: functional, cell-based;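 further: intracellular parasites grown in NIH/3T3 mouse fibroblasts as host cells; luminescent beta-galactosidase reporter signal from transgenic T. cruzi replicating inside host cells; inhibitors lower the luminescence signal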
[2] = cytotoxicity toward NIH3T3 fibroblasts, dose response, counter-screen, cell-based, ATP luminescence, mouse fibroblasts (AID 2010); format: functional;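 further: cells exposed to compound for about 90 hours before reading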
[3] = inhibitors of firefly luciferase expression or activity, dose response, H4 neuroglioma cells, luminescence (AID 1990); format: functional, cell-based
[4] = Luminescence Cell-Based Dose Response HTS to Identify Inhibitors of 5'UTR Stem-Loop Driven Prion Protein mRNA Translation in H4 Neuroglioblastoma Cells. [Related pubchem assays: 1827 (Project Summary), 1813 (Primary HTS)]; format: functional
[5] = inhibitors of SNCA 5'UTR-driven reporter translation, confirmation, H4 neuroglioma cells, luminescence (AID 1988); format: functional, cell-based
Cytochrome P450 2D6 = Cytochrome P450 2D6 (Homo sapiens, UniProt P10635);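 further: CYP2D6 member of a cytochrome P450 panel assay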
INS1 = test: beta cell apoptosis inhibitors, cytokine rescue, dose response, luminescence, retest (AID 449756); format: functional, cell-based; details: Rattus norvegicus;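 further: cell death triggered by IL-1 beta plus TNF-alpha plus IFN-gamma mixture; protective hits raise ATP signal compared with cytokine alone wells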
Cytochrome P450 2C19 = Cytochrome P450 2C19 (Homo sapiens, UniProt P33261); test: Cytochrome panel assay with activity outcomes. Panel member name: p450-cyp2c19 Compounds with AC50 equal or less than 10 uM are considered active; format: functional
Cytochrome P450 2C9 = Cytochrome P450 2C9 (Homo sapiens, UniProt P11712)
Streptococcus = test: Group A Streptococcus viability loss, dose response, counter-screen for streptokinase expression inhibitor project, luminescence, BacTiterGlo (AID 1915); format: functional, organism-based;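 further: potency for reduction of bacterial viability or growth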
[6] = system: Streptococcus sp. 'group A'; test: growth inhibition of control SK(-) GAS strain, dose response, counter-screen for streptokinase expression inhibitor project, luminescence, kanamycin, BacTiterGlo, confirmation (AID 1900); format: functional, organism-based

Cytochrome P450 2D6, sequence (P10635 whole entry): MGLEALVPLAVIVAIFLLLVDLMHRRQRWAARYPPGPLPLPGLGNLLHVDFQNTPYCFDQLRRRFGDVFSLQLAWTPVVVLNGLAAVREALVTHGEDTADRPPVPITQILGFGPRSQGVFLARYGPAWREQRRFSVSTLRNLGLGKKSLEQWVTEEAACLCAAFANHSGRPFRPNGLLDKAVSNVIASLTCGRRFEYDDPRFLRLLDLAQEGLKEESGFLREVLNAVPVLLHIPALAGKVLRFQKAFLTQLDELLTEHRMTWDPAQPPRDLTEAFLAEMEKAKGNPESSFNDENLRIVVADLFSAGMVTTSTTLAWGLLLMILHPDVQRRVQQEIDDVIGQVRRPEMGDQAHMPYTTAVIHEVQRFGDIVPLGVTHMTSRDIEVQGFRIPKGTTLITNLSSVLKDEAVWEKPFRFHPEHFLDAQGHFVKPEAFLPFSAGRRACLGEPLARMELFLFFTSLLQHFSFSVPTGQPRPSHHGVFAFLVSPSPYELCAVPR
Cytochrome P450 2C9, sequence (P11712 whole entry): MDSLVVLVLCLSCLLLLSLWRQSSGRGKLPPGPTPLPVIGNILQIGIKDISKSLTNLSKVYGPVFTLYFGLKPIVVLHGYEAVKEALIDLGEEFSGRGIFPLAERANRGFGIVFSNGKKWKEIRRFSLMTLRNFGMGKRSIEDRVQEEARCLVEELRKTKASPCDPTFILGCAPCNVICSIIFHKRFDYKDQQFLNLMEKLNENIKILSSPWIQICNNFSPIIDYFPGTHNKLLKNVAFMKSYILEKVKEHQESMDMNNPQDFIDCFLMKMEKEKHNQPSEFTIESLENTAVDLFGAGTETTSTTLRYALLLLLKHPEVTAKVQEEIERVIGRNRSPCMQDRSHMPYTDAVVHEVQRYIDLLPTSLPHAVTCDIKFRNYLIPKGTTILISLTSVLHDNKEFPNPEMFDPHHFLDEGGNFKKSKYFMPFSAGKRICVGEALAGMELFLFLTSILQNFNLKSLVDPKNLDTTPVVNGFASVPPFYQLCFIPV
Cytochrome P450 2C19, sequence (P33261 whole entry): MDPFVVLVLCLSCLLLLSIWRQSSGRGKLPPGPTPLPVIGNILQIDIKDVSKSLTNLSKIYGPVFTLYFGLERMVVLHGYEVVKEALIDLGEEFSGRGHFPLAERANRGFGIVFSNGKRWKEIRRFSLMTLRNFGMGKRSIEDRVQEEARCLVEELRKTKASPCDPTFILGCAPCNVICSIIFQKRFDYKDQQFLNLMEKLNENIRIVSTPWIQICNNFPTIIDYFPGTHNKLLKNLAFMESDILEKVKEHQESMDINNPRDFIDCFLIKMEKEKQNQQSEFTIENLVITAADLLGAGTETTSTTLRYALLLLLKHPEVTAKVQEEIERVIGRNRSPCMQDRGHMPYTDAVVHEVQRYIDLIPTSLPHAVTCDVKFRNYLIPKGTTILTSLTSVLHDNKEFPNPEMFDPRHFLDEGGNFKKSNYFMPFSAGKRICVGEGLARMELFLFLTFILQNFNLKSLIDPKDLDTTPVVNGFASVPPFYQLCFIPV

For CN1c2ccc([N+](=O)[O-])cc2N(C)C1(C)c1ccccc1 (stereo unspecified), the EC50 [1] was 2.85 µM (active) and the EC50 [2] was > 60 µM (not active).
With Cc1cccc(C(=O)N[C@H](C(=O)Nc2nc3ccc(S(C)(=O)=O)cc3s2)C(C)C)c1 the EC50 [3] was > 120 µM (not active), the EC50 [4] was > 120 µM (not active) and the EC50 [5] was > 120 µM (not active).
In the case of COc1cccc(Nc2ncc3nc(-c4cccs4)c(=O)n(C[C@H]4CCCO4)c3n2)c1, the AC50 (Cytochrome P450 2D6) is reported as 15.8 µM (inconclusive).
In the case of CC(=O)NC(C)c1cc(Cl)c2cccnc2c1O (stereo unspecified), the AC50 (INS1) is reported as 4.08 µM (active).
With O=C(Nc1ccc([N+](=O)[O-])cn1)c1cc(-c2cccc(Cl)c2)nc2ccccc12 the EC50 [1] was 0.809 µM (active) and the EC50 [2] was > 30 µM (not active).
In the case of CCc1c2c(nc3ccc(OC)cc13)COC2, the AC50 (Cytochrome P450 2C19; read-out: AC50) is reported as 20 µM (inconclusive) and the AC50 (Cytochrome P450 2D6) is reported as 20 µM (inconclusive).
For COc1ccc(-c2ccc([C@H]3[C@@H]4C=CCC[C@@]4(C)C(=O)N3Cc3ccccc3)c(F)c2)cc1, the AC50 (INS1) was 13.2 µM (active).
With COc1cccc(-n2c(CN3CCN(c4cccc(C)c4)C(C)C3)nc3ccc([N+](=O)[O-])cc3c2=O)c1 (stereo unspecified) the EC50 [1] was 1.91 µM (active) and the EC50 [2] was > 60 µM (not active).
With CC1CCN(C(NC(=O)c2ccco2)C(=O)c2ccccc2)CC1 (stereo unspecified) the AC50 (Cytochrome P450 2D6) was 15.8 µM (inconclusive).
In the case of COc1ncc2nc(-c3cccs3)c(=O)n(Cc3ccc(F)cc3)c2n1, the AC50 (Cytochrome P450 2D6) is reported as 0.398 µM (inconclusive).
In the case of CCCn1c(-c2cccc([N+](=O)[O-])c2)nc2c1c(=O)[nH]c(=O)n2Cc1ccccc1, the EC50 [3] is reported as 17.5 µM (active), the EC50 [4] is reported as > 120 µM (not active) and the EC50 [5] is reported as > 120 µM (not active).
In the case of Clc1ccccc1-c1nccc(NCCN2CCOCC2)n1, the AC50 (Cytochrome P450 2D6) is reported as 12.6 µM (inconclusive).
With Cc1cc(C)n(-c2nc(NC(C)(C)C)nc(NC(C)(C)C)n2)n1 the AC50 (Cytochrome P450 2C9) was 8.91 µM (inconclusive), the AC50 (Cytochrome P450 2C19) was “inconclusive” and the AC50 (INS1) was 3.14 µM (active). The EC50 (Streptococcus) was 1.72 µM (active) and the EC50 [6] was 0.694 µM (active).
With COc1cc(C(=O)NC(=S)NNC(=O)c2cnccn2)cc(OC)c1OC the AC50 (INS1) was 1.27 µM (active).
With COc1ccc2[nH]c(C)c(CCN(Cc3cccs3)C(S)=Nc3ccc(F)cc3)c2c1 the EC50 [1] was 4.21 µM (active) and the EC50 [2] was > 60 µM (not active).
With Cc1c(CCO)c(=O)n(C)n1C(=O)c1ccc(F)cc1 the AC50 (Cytochrome P450 2D6) was 22.4 µM (inconclusive).
With O=C(Cn1ncc2c(=O)oc3ccccc3c21)N1CCCc2ccccc21 the EC50 [3] was > 120 µM (not active), the EC50 [4] was 6.05 µM (active) and the EC50 [5] was > 120 µM (not active).
For CCN(CC)CC#CCC(O)(c1ccccc1)C1CCCC1 (stereo unspecified), the EC50 [1] was 0.52 µM (active) and the EC50 [2] was > 60 µM (not active).
For N#Cc1cccc(NC(=O)N2CCCC3(CCN(C(=O)c4ccncc4)CC3)C2)c1, the AC50 (Cytochrome P450 2D6) was 25.1 µM (inconclusive).
In the case of COc1ccc(CNC(=O)C(C)Sc2nc3ccccc3c(=O)n2CCCN2CCOCC2)cc1 (stereo unspecified), the EC50 [3] is reported as 23.9 µM (active), the EC50 [4] is reported as > 120 µM (not active) and the EC50 [5] is reported as > 120 µM (not active).
For O=C(CON1C(=O)c2ccccc2C1=O)c1ccccc1, the AC50 (Cytochrome P450 2C9) was 6.31 µM (inconclusive).
For c1ccc(CCc2cccnc2)nc1, the AC50 (Cytochrome P450 2D6) was 7.94 µM (inconclusive).
With CCN(CC)C(=O)C1CC(=O)N(c2ccc(OC)cc2)C1c1ccc(OC)cc1 (stereo unspecified) the AC50 (Cytochrome P450 2C19; read-out: AC50) was 39.8 µM (inconclusive).
For CCN(CC)c1ccc2c(Cl)cc(=O)oc2c1, the AC50 (Cytochrome P450 2C9) was 31.6 µM (inconclusive).
With O=C(N=Nc1c(O)[nH]c2ccc(Br)cc12)c1cc(-c2cccs2)nc2ccccc12 the EC50 [3] was > 120 µM (not active), the EC50 [4] was 16.6 µM (active) and the EC50 [5] was 9.7 µM (active). For the same molecule, the EC50 [1] was 1.41 µM (active) and the EC50 [2] was > 60 µM (not active).
In the case of Cc1ccc(C(=O)Nc2cc3c(oc2=O)CCCC3=O)cc1, the AC50 (Cytochrome P450 2D6) is reported as 0.01 µM (inconclusive).
For CC(=O)OC[C@@H]1O[C@H](C/C=N\O[C@@H](C)c2cn([C@H]3COC[C@H]3O)nn2)C=C[C@@H]1OC(C)=O, the AC50 (Cytochrome P450 2C19) was “inconclusive”.
For Clc1ccccc1-c1nc(N2CCNCC2)c2ccccc2n1, the AC50 (Cytochrome P450 2D6) was 31.6 µM (inconclusive).
With CCC/C=C(\CCC)C(NC(=O)Oc1ccc(F)cc1)c1ccc(C(=O)OC)cc1 (stereo unspecified) the AC50 (Cytochrome P450 2C9) was 39.8 µM (inconclusive).
For COCCn1c(=O)c(C)nc2cnc(Oc3ccc(OC)cc3)nc21, the AC50 (Cytochrome P450 2C9) was 20 µM (inconclusive) and the AC50 (Cytochrome P450 2C19; read-out: AC50) was 39.8 µM (inconclusive).
For O=c1cc(N2CCCCC2)c(-c2ccccc2)nn1Cc1ccc(F)cc1, the EC50 [1] was 2.17 µM (active) and the EC50 [2] was 9.08 µM (active).
For COc1ccc(Cc2noc(CN3CCCN(C4Cc5ccccc5C4)CC3)n2)cc1OC, the EC50 [1] was 1.3 µM (active) and the EC50 [2] was > 60 µM (not active).
For COc1ccc(OCCSc2nc[nH]n2)cc1, the AC50 (Cytochrome P450 2C9) was 22.4 µM (inconclusive).
For COc1ccccc1N1CCN(c2nc(C)nc3c2oc2ccccc23)CC1, the EC50 [3] was 10.3 µM (active), the EC50 [4] was 0.842 µM (active) and the EC50 [5] was 0.193 µM (active).
For CN(Cc1ccco1)c1ncnc2ccc(-c3ccccc3C(F)(F)F)cc12, the AC50 (Cytochrome P450 2C9) was 1 µM (inconclusive).
In the case of COC(=O)[C@@]1(Cc2ccc(F)cc2)[C@H]2c3cc(C(=O)N(C)C)n(CCCNc4ccc(C(F)(F)F)cc4Cl)c3C[C@H]2CN1C(=O)c1ccccc1, the AC50 (Cytochrome P450 2C19; read-out: AC50) is reported as 25.1 µM (inconclusive).
For COc1cccc2c1OC1(C)CC2NC(=O)N1Cc1ccccc1 (stereo unspecified), the EC50 [3] was 21.6 µM (active), the EC50 [4] was 7.38 µM (active) and the EC50 [5] was 16.1 µM (active).
For COc1ccc(CN2CCCC(CO)(Cc3ccc(F)cc3)C2)cc1C (stereo unspecified), the EC50 [1] was 0.64 µM (active) and the EC50 [2] was 9.58 µM (active).
With CS(=O)(=O)NCCSCc1c(Cl)cccc1Cl the EC50 [1] was 36.9 µM (active) and the EC50 [2] was > 60 µM (inconclusive).
For Cc1ccccc1NC(=O)NCC1CCN(Cc2cccc(Cl)c2)CC1, the EC50 [1] was 1.14 µM (active) and the EC50 [2] was > 30 µM (not active).
In the case of Fc1cccc(Cl)c1-c1nnc2ccc3ccccc3n12, the AC50 (INS1) is reported as 10 µM (active).
For COc1cccc(CC2(CO)CCCN(Cc3ccc(CN4CCCCC4)s3)C2)c1 (stereo unspecified), the EC50 [1] was 0.253 µM (active) and the EC50 [2] was 9.85 µM (active).
For COc1ccc(OC)c(-c2nc(CN3CCCCC3c3cccnc3)c(C)o2)c1 (stereo unspecified), the EC50 [1] was 2.02 µM (active) and the EC50 [2] was > 60 µM (not active).
For O=c1c(Cc2ccccc2)c(O)nc2n1CCS2, the AC50 (Cytochrome P450 2C9) was 14.1 µM (inconclusive) and the AC50 (Cytochrome P450 2C19; read-out: AC50) was 14.1 µM (inconclusive).
For NC(=O)c1[nH]cnc1N, the EC50 [1] was > 30 µM (not active) and the EC50 [2] was 4.94 µM (active).
In the case of COc1cc2c3cc1Oc1cc(ccc1O)C[C@@H]1c4c(cc(OC)c(O)c4Oc4ccc(cc4)C[C@H]3[N+](C)(C)CC2)CC[N+]1(C)C, the AC50 (Cytochrome P450 2C19) is reported as “inconclusive”.
With CCCN(CCC)C(=S)NC(=O)c1ccc(Cl)cc1Cl the AC50 (Cytochrome P450 2D6) was 10 µM (inconclusive).
In the case of CC(=O)n1cc([C@H]2C=C(C(=O)N3CCN(Cc4ccccc4)CC3)O[C@@H](OCc3ccc(CO)cc3)C2)c2ccccc21, the EC50 [1] is reported as 0.435 µM (active) and the EC50 [2] is reported as > 30 µM (not active).
For O=C(CCc1ccc(S(=O)(=O)NC2CCCCC2)cc1)N(Cc1ccccc1)Cc1ccccc1, the AC50 (Cytochrome P450 2D6) was 12.6 µM (inconclusive).
For Cc1c(C(=O)N(Cc2ccccc2)C(C)C)oc2ccc(S(=O)(=O)N3CCOCC3)cc12, the AC50 (INS1) was 48 µM (active).
For Cc1cccc(N(C)S(=O)(=O)c2ccc3[nH]c(=O)c(=O)[nH]c3c2)c1, the AC50 (Cytochrome P450 2C19; read-out: AC50) was 20 µM (inconclusive).
In the case of Cc1noc(/C=C/N(C)C)c1S(=O)(=O)N1CCCC(C(=O)NC2CCCCC2)C1 (stereo unspecified), the EC50 [1] is reported as 0.484 µM (active) and the EC50 [2] is reported as 6.5 µM (active).
For Cc1ccc2cc(CN(Cc3ccco3)C(=O)NC3CCCCC3)c(O)nc2c1C, the EC50 [3] was 15.9 µM (active), the EC50 [4] was 16.4 µM (active) and the EC50 [5] was 13.6 µM (active).
For Cc1cc(C)cc(N(C(=O)C2CCCC2)C2C=CS(=O)(=O)C2)c1 (stereo unspecified), the AC50 (Cytochrome P450 2C9) was 35.5 µM (inconclusive) and the AC50 (Cytochrome P450 2C19; read-out: AC50) was 17.8 µM (inconclusive).
For Cc1cc(C)c2c(ccc3cccc[n+]32)c1.[O-][Cl+3]([O-])([O-])[O-], the AC50 (INS1) was 4.61 µM (active).
In the case of C/C(=N\Nc1nc(-c2ccccn2)nc2ccccc12)c1ccc(F)cc1, the EC50 [3] is reported as 9.76 µM (active), the EC50 [4] is reported as 3.74 µM (active) and the EC50 [5] is reported as 8.26 µM (active). The AC50 (INS1) was 41.9 µM (active).
With COc1cc(C(=O)NCC(=O)N/N=C(C)\C=C\c2ccccc2)cc(OC)c1OC the EC50 [3] was > 120 µM (not active), the EC50 [4] was 24.9 µM (active) and the EC50 [5] was > 120 µM (not active).
In the case of CCN(CC)c1ccc(/N=C/c2cc(Br)ccc2O)cc1, the EC50 [1] is reported as 4.39 µM (active) and the EC50 [2] is reported as > 60 µM (inconclusive).
For O=C(N/N=C/c1ccc([N+](=O)[O-])o1)c1ccc2c(c1)OCO2, the EC50 [1] was 0.172 µM (active) and the EC50 [2] was > 30 µM (not active).
For O=C1CC(c2ccc3c(c2)OCO3)CN1 (stereo unspecified), the AC50 (Cytochrome P450 2C19; read-out: AC50) was 39.8 µM (inconclusive).
In the case of CC(C)c1ccc(Cn2ccc3c4c(N)nc(NC5CC5)nc4ccc32)cc1, the AC50 (Cytochrome P450 2C19; read-out: AC50) is reported as 31.6 µM (inconclusive).
In the case of CN(C)CCO[C@@H](c1ccc(Cl)cc1)c1ccccn1 [ROTOXAMINE], the AC50 (Cytochrome P450 2C19) is reported as “inconclusive” and the AC50 (Cytochrome P450 2D6) is reported as 12.6 µM (inconclusive).
